# Assay results taken from patent US20250170132A1, “SALTS AND POLYMORPHIC FORMS OF MENIN INHIBITORS AND PHARMACEUTICAL COMPOSITIONS THEREOF” (Syndax Pharmaceuticals, Inc., priority 2023, published 2025).
# Legend:
# [1] = Scale-up preparation of Form C with DVS; format: physicochemical
# Method: Approximately 300 mg of Form A was weighed into a 4 mL glass vial and 2.5 mL of MeCN was added slowly to make a slurry. The sample vial was kept at 50° C. with stirring for 3 days. After 3 days, slurry material was isolated and dried at 40° C. with a N2 bleed.
# [2] = Form C screening experiments; format: physicochemical
# [3] = Exp. 1/5: reactive crystallization, material 166 mg, citric acid 51 mg, MeCN 1.0 mL, RT
# [4] = Exp. 2/6: reactive crystallization, material 166 mg, citric acid 51 mg, EtOAc 1.0 mL, RT
# [5] = Exp. 3/7: reactive crystallization, material 166 mg, citric acid 51 mg, MeCN 1.0 mL, 50 °C
# [6] = Exp. 4/8: reactive crystallization, material 166 mg, citric acid 51 mg, EtOAc 1.0 mL, 50 °C
SMILES,DVS (weight gain between 30%-80% RH) ([1]; 1st adsorption cycle) [%],DVS (weight gain between 30%-80% RH) ([1]; 2nd adsorption cycle) [%],Post DVS form ([1]; after DVS),"Crystal Form [2, 3]","Crystal Form [2, 4]","Crystal Form [2, 5]","Crystal Form [2, 6]","Crystal Form ([2]; Exp. 11: slurry conditioning, 166 mg, no citric acid, MeCN 1.0 mL, 50 °C)","Crystal Form ([2]; Exp. 12: slurry conditioning, 166 mg, no citric acid, EtOAc 1.0 mL, 50 °C)","Crystal Form ([2]; Exp. 9: slurry conditioning, 166 mg, no citric acid, MeCN 1.0 mL, RT)","Crystal Form ([2]; Exp. 10: slurry conditioning, 166 mg, no citric acid, EtOAc 1.0 mL, RT)","Crystal Form ([2]; Exp. 13: reactive crystallization, citric acid 15 mg, MeCN 0.5 mL, RT (Form C in MeCN; Hazy → FB + Acid))","Crystal Form ([2]; Exp. 14: reactive crystallization, citric acid 15 mg, MeCN 0.5 mL, RT (FB + Acid in MeCN → CL → Form C))","Crystal Form ([2]; Exp. 15: citric acid 30 mg, MeCN 0.5 + 1.5 mL, RT, 1:2 of FB:Acid)"
CC#N.CCN(C(=O)c1cc(F)ccc1Oc1cncnc1N1CC2(CCN(CC3CCC(NS(=O)(=O)CC)CC3)CC2)C1)C(C)C.O=C(O)CC(O)(CC(=O)O)C(=O)O (stereo not drawn) [Compound A citrate Form C],1.6,6.1,changed to Form-A,–,–,–,–,–,–,–,–,–,–,–
CCN(C(=O)c1cc(F)ccc1Oc1cncnc1N1CC2(CCN(C[C@H]3CC[C@H](NS(=O)(=O)CC)CC3)CC2)C1)C(C)C [FB-1],–,–,–,"Form A, w/pattern shift",FB-1 w/extra peaks,Form A → Form C,Essentially Form C,FB-1,FB-1,–,–,–,–,–
CCN(C(=O)c1cc(F)ccc1Oc1cncnc1N1CC2(CCN(C[C@H]3CC[C@H](NS(=O)(=O)CC)CC3)CC2)C1)C(C)C [FB-2],–,–,–,"Form A, w/pattern shift",FB-2 w/extra peaks,Form A → Form C,Form A,–,–,FB-2,FB-2,Form C,Form C,Form C
